Measured values taken from patent US20240279232A1, “USE OF SUBSTITUTED 5-(4-METHYL-6-PHENYL-4H-BENZO[F]IMIDAZO[1,5-A][1,4] DIAZEPIN-3-YL)-1,2,4-O[…] THE TREATMENT OF INFLAMMATORY CONDITIONS” (priority 2021, published 2024).
Where two headings read alike, the source gives them in different places.

Columns and labels:
MOR (μ opioid receptor) = biological target: T1, MOR (μ opioid receptor) (Homo sapiens, UniProt P35372); test: MOR radioligand binding ([3H]-DAMGO, HEK293 cell homogenates); details: for inhibition at 10 µM: Percent inhibition at 10,000 nM, [3H]-DAMGO
T1 construct: expressed in transfected cells; host or cells: HEK293

DOR (δ opioid receptor) = biological target: T2, DOR (δ opioid receptor) (Homo sapiens, UniProt P41143); test: DOR radioligand binding ([3H]-DADLE, HEK293 cell homogenates); details: for inhibition at 10 µM: Percent inhibition at 10,000 nM, [3H]-DADLE
T2 construct: expressed in transfected cells; host or cells: HEK293

KOR (κ opioid receptor) = biological target: T3, KOR (κ opioid receptor) (Homo sapiens, UniProt P41145); test: KOR radioligand binding ([3H]-U69593, HEK293 cell homogenates); details: for inhibition at 10 µM: Percent inhibition at 10,000 nM
T3 construct: expressed in transfected cells; host or cells: HEK293 (stably transfected)

Mouse microglia = test: NO production (Griess assay), LPS/IFNγ-activated mouse microglia; format: cell-based; details: for inhibition at 10 µM / inhibition at 50 µM: Mus musculus, Microglia, 24 h
Alpha1D = Alpha1D (Homo sapiens, UniProt P25100); test: PDSP primary binding Alpha1D; details: PDSP primary screening
Method: (§1) Because reduction of NO could not be reversed by GABAAR antagonists, the possible binding of MP-IV-010 to other cellular receptors was evaluated in collaboration with the NIMH Psychoactive Drug Screening Program.
(§2) Psychoactive Drug Screening Program. Detailed protocols for the primary and secondary radioligand binding assays can be found in the National Institute of Mental Health's Psychoactive Drug Screening Program (NIMH PDSP) Assay Protocol Book. Briefly, primary and secondary radioligand binding assays are carried out in a final of volume of 125 μL per well in appropriate binding buffer. The radioactive ligand concentration is close to the Kd. Total binding and nonspecific binding are determined in the absence and presence of 10 μM of appropriate reference compound, respectively. In brief, plates are usually incubated at room temperature and in the dark for 90 min. Reactions are stopped by vacuum filtration onto 0.3% polyethyleneimine (PEI) soaked 96-well filter mats using a 96-well Filtermate harvester, followed by three washes with cold PBS buffer. Scintillation cocktail is then melted onto the microwave-dried filters on a hot plate and radioactivity counted in a Microbeta counter. The data (n=6) were analyzed by nonlinear regression.

Swiss Webster mice = test: Rotarod test; details: for sensorimotor deficits on the rotarod: p.o. at 4-fold the effective dose in the formalin test
5-HT2C = 5-HT2C (Homo sapiens, UniProt P28335); test: PDSP primary binding 5-HT2C; details: PDSP primary screening
Method: as §1, §2

5-HT2B = 5-HT2B (Homo sapiens, UniProt P41595); test: PDSP primary binding 5-HT2B; details: PDSP primary screening
Method: as §1, §2

H2 = H2 (Homo sapiens, UniProt P25021); test: PDSP primary binding H2; details: PDSP primary screening
Method: as §1, §2

[1] = concentration-dependent, [3H]-U69593, read-out: KOR (Ki)

SMILES	inhibition at 10 µM (MOR (μ opioid receptor)) [%]	inhibition at 10 µM (DOR (δ opioid receptor)) [%]	Ki (KOR (κ opioid receptor)) [µM]	inhibition at 10 µM (KOR (κ opioid receptor); [3H]-U69593) [%]	inhibition at 10 µM (Mouse microglia) [%]	inhibition at 50 µM (Mouse microglia) [%]	other results
CCOC(=O)c1ncn2c1[C@@H](C)N=C(c1ccccc1F)c1cc(C3CC3)ccc1-2 [GL-III-42]	0	13	0.174	86	55 ± 12		
C#Cc1ccc2c(c1)C(c1ccccc1F)=N[C@H](C)c1c(-c3cnco3)ncn1-2 [GL-III-73]	12	4	0.449	74	40 ± 3		
C#Cc1ccc2c(c1)C(c1ccccc1F)=N[C@H](C)c1c(C(=O)NC(C)C)ncn1-2 [GL-III-66]	0	0		63	13 ± 2		Ki (KOR (κ opioid receptor); [1]): 0.233 µM
C[C@H]1N=C(c2ccccc2F)c2cc(Br)ccc2-n2cnc(-c3cnco3)c21 [GL-III-36]	0	12	0.246	88	8 ± 5	41 ± 7	
C[C@H]1N=C(c2ccccn2)c2cc(Br)ccc2-n2cnc(C(=O)O)c21 [GL-II-51]	0	0		11	9 ± 4		
C#Cc1ccc2c(c1)C(c1ccccc1F)=N[C@H](C)c1c(C(=O)NC)ncn1-2 [MP-III-022]	3	22		80	36 ± 6	60 ± 12	Ki (KOR (κ opioid receptor); [1]): 0.381 µM
CCOC(=O)c1ncn2c1[C@@H](C)N=C(c1ccccn1)c1cc(Br)ccc1-2 [GL-II-06]	11	9		79	14 ± 3		Ki (KOR (κ opioid receptor); [1]): 0.401 µM
C#Cc1ccc2c(c1)C(c1ccccc1F)=N[C@H](C)c1c(-c3nc(C(C)C)no3)ncn1-2 [MP-IV-010, (R)-5-(8-ethynyl-6-(2-fluorophenyl)-4-methyl-4H-benzo[f]imidazo[1,5-a][1,4]diazepin-3-yl)-3-isopropyl-1,2,4-oxadiazole]	33	5	0.145	94	66 ± 13	96 ± 13	Percent Competition Alpha1D (Alpha1D): 9%; Percent Competition MOR (MOR (μ opioid receptor); PDSP primary screening): 33%; sensorimotor deficits on the rotarod (Swiss Webster mice): did not cause any sensorimotor deficits; Percent Competition DOR (DOR (δ opioid receptor); PDSP primary screening): 5%; Percent Competition 5-HT2C (5-HT2C): −2%; Percent Competition 5-HT2B (5-HT2B): 0%; Percent Competition H2 (H2): 28%; IC50 (KOR (κ opioid receptor)): 0.351 µM; Percent Competition KOR (KOR (κ opioid receptor); PDSP primary screening): 94%; NO production of activated microglia (in words) (Mouse microglia; dexamethasone 100 nM, GABA 1 μM, MP-IV-010 50 μM, GL-II-33 in the library screen): significant reduction
C[C@@H]1N=C(c2ccccc2F)c2cc(Br)ccc2-n2cnc(-c3cnco3)c21 [GL-III-76]	3	0	0.221	83	34 ± 1		
C[C@H]1N=C(c2ccccc2F)c2cc(Br)ccc2-n2cnc(C(=O)N(C)C)c21 [GL-III-69]	0	10		75	37 ± 6		Ki (KOR (κ opioid receptor); [1]): 0.511 µM
CCc1noc(-c2ncn3c2[C@@H](C)N=C(c2ccccc2F)c2cc(C4CC4)ccc2-3)n1 [GL-IV-03, (R)-5-(8-Cyclopropyl-6-(2-fluorophenyl)-4-methyl-4H-benzo[f]imidazo[1,5-a][1,4]diazepin-3-yl)-3-ethyl-1,2,4-oxadiazole]	25	67	0.232	91	90		ability of mice to balance on a rotating rod for three minutes (Swiss Webster mice; intraperitoneal, 10 and 40 mg/kg): did not influence the ability of mice to balance; sensorimotor deficits on the rotarod (Swiss Webster mice): did not cause any sensorimotor deficits
Cc1noc(-c2ncn3c2[C@@H](C)N=C(c2ccccc2F)c2cc(C4CC4)ccc2-3)n1 [GL-III-63, (R)-5-(8-Cyclopropyl-6-(2-fluorophenyl)-4-methyl-4H-benzo[f]imidazo[1,5-a][1,4]diazepin-3-yl)-3-methyl-1,2,4-oxadiazole]	8	31	0.678	78	25 ± 4	89 ± 12	
C[C@H]1N=C(c2ccccc2F)c2cc(Cl)ccc2-n2cnc(C(=O)O)c21 [GL-III-54]	0	0		22	31 ± 9		
C#Cc1ccc2c(c1)C(c1ccccc1F)=N[C@@H](C)c1c(-c3cnco3)ncn1-2 [GL-III-78]	10	9	0.451	74	39 ± 5		
C#Cc1ccc2c(c1)C(c1ccccc1F)=N[C@H](C)c1c(-c3nc(C)no3)ncn1-2 [MP-IV-004]	7	10	0.444	86	34 ± 5	60 ± 6	
CCNC(=O)c1ncn2c1[C@@H](C)N=C(c1ccccc1F)c1cc(C3CC3)ccc1-2 [GL-III-68]	0	10		88	24 ± 5		
C[C@H]1N=C(c2ccccc2F)c2cc(C3CC3)ccc2-n2cnc(C(=O)N(C)C)c21 [GL-III-70]	0	50		68	32 ± 4		Ki (KOR (κ opioid receptor); [1]): 0.8 µM
Cc1noc(-c2ncn3c2[C@@H](C)N=C(c2ccccc2F)c2cc(Br)ccc2-3)n1 [GL-III-60, (R)-5-(8-Bromo-6-(2-fluorophenyl)-4-methyl-4H-benzo[f]imidazo[1,5-a][1,4]diazepin-3-yl)-3-methyl-1,2,4-oxadiazole]	26	18	0.232	87	55 ± 8	68 ± 8	
